Results on two compounds are retold here after ChEMBL document CHEMBL3745672, “Novel compounds reducing IRS-1 serine phosphorylation for treatment of diabetes” (Bioorg Med Chem Lett, 2016).

Assay [1] addresses T1, Mitogen-activated protein kinase 8 (Homo sapiens, UniProt P45983). The assay is described as follows: Inhibition of JNK1 (unknown origin) expressed in HEK293 cells assessed as anisomycin-induced JNK phosphorylation at 10 uM incubated for 30 mins by Western blot analysis relative to anisomycin. Format: cell-based. On the set-up: scale not given: the % may be the effect or the level left. (In general: In western blotting, separated proteins are transferred to a membrane and probed.)

The test system of another assay is HEK293. The assay is described as follows: Cytotoxicity against HEK293 after 24 hrs by CellTiter-Glo luminescent cell viability assay. Format: cell-based. To be noted: Homo sapiens, HEK293, 24 h. For orientation: Cellular ATP, detected with luciferase, serves as a proxy for viable cell number.
In assay [2] the target is Proto-oncogene tyrosine-protein kinase receptor Ret (Homo sapiens) (UniProt P07949). Nature of the assay: Inhibition of RET (unknown origin) at 1 uM.
Chain of Proto-oncogene tyrosine-protein kinase receptor Ret (Homo sapiens) (P07949 whole entry): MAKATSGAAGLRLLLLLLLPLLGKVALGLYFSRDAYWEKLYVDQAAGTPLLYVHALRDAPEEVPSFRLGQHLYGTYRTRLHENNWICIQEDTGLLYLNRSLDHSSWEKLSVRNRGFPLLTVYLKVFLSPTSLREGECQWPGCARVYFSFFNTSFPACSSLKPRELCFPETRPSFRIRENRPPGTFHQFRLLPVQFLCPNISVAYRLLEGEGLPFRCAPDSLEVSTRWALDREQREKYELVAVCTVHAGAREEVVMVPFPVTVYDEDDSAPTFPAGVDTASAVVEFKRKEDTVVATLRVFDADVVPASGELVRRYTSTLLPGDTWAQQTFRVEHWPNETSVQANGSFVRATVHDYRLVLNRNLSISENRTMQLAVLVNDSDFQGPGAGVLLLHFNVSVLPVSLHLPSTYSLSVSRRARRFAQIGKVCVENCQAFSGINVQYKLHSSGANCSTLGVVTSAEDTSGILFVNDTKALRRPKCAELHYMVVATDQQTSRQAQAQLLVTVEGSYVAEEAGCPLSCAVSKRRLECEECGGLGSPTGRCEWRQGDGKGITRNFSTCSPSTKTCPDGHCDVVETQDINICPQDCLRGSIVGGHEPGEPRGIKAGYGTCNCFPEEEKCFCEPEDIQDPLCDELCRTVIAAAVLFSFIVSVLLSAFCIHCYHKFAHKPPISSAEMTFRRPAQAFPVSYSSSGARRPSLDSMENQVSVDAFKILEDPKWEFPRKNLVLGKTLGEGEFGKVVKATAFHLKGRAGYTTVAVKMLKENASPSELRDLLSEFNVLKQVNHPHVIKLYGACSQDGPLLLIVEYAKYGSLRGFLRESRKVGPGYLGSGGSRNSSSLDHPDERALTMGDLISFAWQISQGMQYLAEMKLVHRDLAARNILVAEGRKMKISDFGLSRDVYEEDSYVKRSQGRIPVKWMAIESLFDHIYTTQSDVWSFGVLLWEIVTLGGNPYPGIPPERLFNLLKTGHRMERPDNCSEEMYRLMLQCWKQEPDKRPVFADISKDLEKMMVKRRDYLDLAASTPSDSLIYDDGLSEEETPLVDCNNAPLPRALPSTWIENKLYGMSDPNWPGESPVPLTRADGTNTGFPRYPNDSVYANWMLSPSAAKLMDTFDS
Assay [3] has as its target T1, Mitogen-activated protein kinase 8. The assay is described as follows: Inhibition of JNK1 (unknown origin) expressed in HEK293 cells assessed as anisomycin-induced IRS-1(Ser307) phosphorylation at 10 uM incubated for 30 mins by Western blot analysis relative to anisomycin. Format: cell-based. Details: scale not given: the % may be the effect or the level left.
The target in assay [4] is Serine/threonine-protein kinase PLK3 (Homo sapiens) (UniProt Q9H4B4). Nature of the assay: Inhibition of PLK3 (unknown origin) at 1 uM.
Chain of Serine/threonine-protein kinase PLK3 (Homo sapiens) (Q9H4B4 whole entry, looked up): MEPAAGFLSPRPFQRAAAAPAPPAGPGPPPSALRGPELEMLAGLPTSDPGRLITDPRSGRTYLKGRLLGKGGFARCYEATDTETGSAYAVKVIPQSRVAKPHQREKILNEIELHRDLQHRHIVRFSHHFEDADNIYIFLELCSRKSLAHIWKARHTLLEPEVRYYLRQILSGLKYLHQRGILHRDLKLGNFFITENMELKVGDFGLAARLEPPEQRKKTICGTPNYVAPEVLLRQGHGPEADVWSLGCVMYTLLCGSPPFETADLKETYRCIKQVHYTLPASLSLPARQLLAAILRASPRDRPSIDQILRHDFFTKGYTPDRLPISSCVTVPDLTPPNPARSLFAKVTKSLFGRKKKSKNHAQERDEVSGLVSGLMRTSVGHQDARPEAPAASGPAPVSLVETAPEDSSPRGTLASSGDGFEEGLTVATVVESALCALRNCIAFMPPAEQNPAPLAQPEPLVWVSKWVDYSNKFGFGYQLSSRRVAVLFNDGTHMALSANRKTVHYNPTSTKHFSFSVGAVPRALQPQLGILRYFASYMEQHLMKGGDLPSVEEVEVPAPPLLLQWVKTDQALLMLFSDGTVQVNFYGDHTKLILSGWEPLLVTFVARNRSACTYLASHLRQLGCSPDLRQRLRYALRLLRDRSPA
Assay [5] deals with Fibroblast growth factor receptor 3 (Homo sapiens) (UniProt P22607). The assay is described as follows: Inhibition of FGFR3 (unknown origin) at 1 uM.
Chain of Fibroblast growth factor receptor 3 (Homo sapiens) (P22607 23-806 limits assumed): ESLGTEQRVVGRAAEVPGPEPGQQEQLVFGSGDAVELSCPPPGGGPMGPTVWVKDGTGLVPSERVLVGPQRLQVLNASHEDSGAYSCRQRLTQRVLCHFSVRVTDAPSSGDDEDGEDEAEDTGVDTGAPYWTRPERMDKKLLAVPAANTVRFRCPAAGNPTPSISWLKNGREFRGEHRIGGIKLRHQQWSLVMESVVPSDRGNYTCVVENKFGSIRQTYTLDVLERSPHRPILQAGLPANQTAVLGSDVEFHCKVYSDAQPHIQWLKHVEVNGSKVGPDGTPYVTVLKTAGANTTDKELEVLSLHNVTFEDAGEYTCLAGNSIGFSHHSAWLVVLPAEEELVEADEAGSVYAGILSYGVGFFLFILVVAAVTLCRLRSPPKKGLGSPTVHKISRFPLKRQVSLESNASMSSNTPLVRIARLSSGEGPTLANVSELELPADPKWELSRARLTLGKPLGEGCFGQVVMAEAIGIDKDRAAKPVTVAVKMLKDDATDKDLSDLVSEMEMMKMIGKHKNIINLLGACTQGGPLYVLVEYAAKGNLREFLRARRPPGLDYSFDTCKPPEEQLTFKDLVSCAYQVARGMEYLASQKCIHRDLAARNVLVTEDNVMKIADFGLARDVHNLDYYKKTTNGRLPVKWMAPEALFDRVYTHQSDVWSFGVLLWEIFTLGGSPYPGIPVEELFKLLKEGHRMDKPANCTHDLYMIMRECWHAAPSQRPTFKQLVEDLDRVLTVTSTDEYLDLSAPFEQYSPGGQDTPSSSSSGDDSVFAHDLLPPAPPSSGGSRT
Assay [6] has as its target Death-associated protein kinase 3 (Homo sapiens) (UniProt O43293). The assay is described as follows: Inhibition of DAPK3 (unknown origin) at 1 uM.
The target in assay [7] is Mitogen-activated protein kinase 3 (Homo sapiens) (UniProt P27361). Nature of the assay: Inhibition of ERK1 (unknown origin) at 1 uM.
Chain of Mitogen-activated protein kinase 3 (Homo sapiens) (P27361 whole entry): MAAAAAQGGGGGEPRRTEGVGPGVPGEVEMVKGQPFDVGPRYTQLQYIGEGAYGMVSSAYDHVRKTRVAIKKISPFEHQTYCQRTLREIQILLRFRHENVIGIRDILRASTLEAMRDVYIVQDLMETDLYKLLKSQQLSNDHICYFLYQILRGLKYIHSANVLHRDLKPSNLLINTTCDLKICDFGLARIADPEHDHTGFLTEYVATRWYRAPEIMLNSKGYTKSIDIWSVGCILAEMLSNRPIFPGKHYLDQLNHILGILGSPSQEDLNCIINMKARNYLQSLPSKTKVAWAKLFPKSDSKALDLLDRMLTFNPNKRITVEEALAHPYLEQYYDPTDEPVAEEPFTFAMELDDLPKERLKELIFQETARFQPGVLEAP
For assay [8] the target is unchanged. The assay is described as follows: Inhibition of ERK1 (unknown origin) at 10 uM.
In assay [9] the target is Angiopoietin-1 receptor (Homo sapiens) (UniProt Q02763). The assay is described as follows: Inhibition of TIE2 (unknown origin) at 10 uM.
Assay [10] addresses T2, Inhibitor of nuclear factor kappa-B kinase subunit beta (Homo sapiens) (UniProt O14920).
T2 sequence (whole entry): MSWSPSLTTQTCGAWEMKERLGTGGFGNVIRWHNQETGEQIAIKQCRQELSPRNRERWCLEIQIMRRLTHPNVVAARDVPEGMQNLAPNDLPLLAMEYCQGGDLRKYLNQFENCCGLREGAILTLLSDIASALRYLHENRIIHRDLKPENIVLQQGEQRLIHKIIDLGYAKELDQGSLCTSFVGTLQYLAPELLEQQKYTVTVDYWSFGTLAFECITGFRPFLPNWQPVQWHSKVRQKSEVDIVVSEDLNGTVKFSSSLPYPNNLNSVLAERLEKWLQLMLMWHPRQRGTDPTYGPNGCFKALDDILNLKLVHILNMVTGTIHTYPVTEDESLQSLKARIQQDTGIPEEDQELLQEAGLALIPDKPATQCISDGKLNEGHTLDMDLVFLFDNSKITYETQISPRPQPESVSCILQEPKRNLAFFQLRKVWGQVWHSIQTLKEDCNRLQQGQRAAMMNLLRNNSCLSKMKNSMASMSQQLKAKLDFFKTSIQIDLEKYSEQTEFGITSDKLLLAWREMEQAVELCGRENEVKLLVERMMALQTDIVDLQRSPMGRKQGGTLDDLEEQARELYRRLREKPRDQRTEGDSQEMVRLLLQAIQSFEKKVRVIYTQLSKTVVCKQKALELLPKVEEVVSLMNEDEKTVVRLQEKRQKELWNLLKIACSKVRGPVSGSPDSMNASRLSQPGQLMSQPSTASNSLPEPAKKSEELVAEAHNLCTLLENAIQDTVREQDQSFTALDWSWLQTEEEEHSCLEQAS
Nature of the assay: Inhibition of IKKbeta (unknown origin) at 10 uM.

In assay [11] the target is Cyclin-dependent kinase 4/cyclin D1 (Homo sapiens) (UniProt P11802+P24385). Nature of the assay: Inhibition of CDK4/cyclin D1 (unknown origin) at 10 uM. The assay is classed as protein-complex assay.
In assay [12] the target is Tyrosine-protein kinase CSK (Homo sapiens) (UniProt P41240). Nature of the assay: Inhibition of CSK (unknown origin) at 10 uM.
Chain of Tyrosine-protein kinase CSK (Homo sapiens) (P41240 2-450 limits assumed): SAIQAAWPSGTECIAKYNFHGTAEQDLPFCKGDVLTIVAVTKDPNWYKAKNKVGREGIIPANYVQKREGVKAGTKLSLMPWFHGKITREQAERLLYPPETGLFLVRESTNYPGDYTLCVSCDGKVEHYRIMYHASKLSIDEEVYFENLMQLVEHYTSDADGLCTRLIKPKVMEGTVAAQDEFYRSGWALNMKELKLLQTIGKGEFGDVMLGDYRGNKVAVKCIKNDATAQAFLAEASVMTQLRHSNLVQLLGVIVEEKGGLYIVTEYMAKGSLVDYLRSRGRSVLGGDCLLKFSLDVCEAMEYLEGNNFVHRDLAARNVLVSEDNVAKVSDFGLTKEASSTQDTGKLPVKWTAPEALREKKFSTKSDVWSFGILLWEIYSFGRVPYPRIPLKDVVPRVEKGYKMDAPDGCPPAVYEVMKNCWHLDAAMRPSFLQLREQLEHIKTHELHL
Assay [13] deals with T3, Interleukin-1 receptor-associated kinase 4 (Homo sapiens) (UniProt Q9NWZ3).
T3 sequence (whole entry): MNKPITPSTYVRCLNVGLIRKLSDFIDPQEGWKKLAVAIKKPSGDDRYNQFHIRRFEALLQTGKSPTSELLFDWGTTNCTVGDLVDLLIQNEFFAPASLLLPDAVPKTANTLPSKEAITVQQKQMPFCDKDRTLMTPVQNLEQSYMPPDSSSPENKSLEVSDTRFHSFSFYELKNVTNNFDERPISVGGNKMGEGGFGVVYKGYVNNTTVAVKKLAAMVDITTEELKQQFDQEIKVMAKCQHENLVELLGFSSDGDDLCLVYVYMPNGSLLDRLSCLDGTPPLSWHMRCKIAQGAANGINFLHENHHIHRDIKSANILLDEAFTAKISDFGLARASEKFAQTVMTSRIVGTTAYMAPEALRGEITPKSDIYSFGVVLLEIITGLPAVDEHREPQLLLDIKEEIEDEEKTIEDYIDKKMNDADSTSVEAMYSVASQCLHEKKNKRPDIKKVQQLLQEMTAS
The assay is described as follows: Inhibition of IRAK4 (unknown origin) at 10 uM.

Assay [14] deals with T4, Serine/threonine-protein kinase Chk1 (Homo sapiens) (UniProt O14757).
T4 sequence (whole entry): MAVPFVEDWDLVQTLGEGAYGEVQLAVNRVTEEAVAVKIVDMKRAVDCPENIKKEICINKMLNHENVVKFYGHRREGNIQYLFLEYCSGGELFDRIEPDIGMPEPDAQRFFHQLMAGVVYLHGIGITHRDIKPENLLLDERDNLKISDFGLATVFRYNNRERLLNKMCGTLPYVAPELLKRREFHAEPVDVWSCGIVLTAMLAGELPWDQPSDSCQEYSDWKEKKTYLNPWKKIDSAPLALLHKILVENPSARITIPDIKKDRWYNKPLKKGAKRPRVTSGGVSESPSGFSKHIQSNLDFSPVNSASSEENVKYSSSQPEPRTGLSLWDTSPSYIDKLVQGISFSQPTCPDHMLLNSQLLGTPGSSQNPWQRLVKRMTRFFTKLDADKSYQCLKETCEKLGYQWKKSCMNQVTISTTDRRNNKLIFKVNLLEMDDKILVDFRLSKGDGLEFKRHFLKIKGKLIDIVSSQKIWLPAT
Nature of the assay: Inhibition of CHK1 (unknown origin) at 10 uM.

Assay [15] addresses Tyrosine-protein kinase receptor UFO (Homo sapiens) (UniProt P30530). Nature of the assay: Inhibition of AXL (unknown origin) at 10 uM.
Assay [16] addresses T1, Mitogen-activated protein kinase 8. Nature of the assay: Inhibition of JNK1 (unknown origin) at 10 uM.
The target in assay [17] is Fibroblast growth factor receptor 3 (Homo sapiens) (UniProt P22607). The assay is described as follows: Inhibition of FGFR3 (unknown origin) at 10 uM.
Assay [18] deals with Protein kinase C alpha type (Homo sapiens) (UniProt P17252). The assay is described as follows: Inhibition of PKCalpha (unknown origin) at 10 uM.
The target in assay [19] is Serine/threonine-protein kinase PAK 1 (Homo sapiens) (UniProt Q13153). Nature of the assay: Inhibition of PAK1 (unknown origin) at 10 uM.
Assay [20] concerns the target Receptor-type tyrosine-protein kinase FLT3 (Homo sapiens) (UniProt P36888). The assay is described as follows: Inhibition of FLT3 (unknown origin) at 10 uM.
In assay [21] the target is Tyrosine-protein kinase SYK (Homo sapiens) (UniProt P43405). The assay is described as follows: Inhibition of SYK (unknown origin) at 10 uM.

T1 sequence (P45983 whole entry): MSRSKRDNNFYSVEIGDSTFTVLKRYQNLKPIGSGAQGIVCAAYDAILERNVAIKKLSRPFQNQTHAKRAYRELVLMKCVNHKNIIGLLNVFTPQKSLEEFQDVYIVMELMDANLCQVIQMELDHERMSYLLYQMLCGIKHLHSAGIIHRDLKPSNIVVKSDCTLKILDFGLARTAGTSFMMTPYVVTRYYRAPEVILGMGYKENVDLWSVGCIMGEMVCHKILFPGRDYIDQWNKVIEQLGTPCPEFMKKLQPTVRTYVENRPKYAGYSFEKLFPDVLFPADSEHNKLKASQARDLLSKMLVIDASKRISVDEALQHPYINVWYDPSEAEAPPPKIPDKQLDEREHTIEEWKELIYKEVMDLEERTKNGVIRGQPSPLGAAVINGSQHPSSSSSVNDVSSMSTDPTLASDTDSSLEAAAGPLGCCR
Chain of Death-associated protein kinase 3 (Homo sapiens) (O43293 whole entry, looked up): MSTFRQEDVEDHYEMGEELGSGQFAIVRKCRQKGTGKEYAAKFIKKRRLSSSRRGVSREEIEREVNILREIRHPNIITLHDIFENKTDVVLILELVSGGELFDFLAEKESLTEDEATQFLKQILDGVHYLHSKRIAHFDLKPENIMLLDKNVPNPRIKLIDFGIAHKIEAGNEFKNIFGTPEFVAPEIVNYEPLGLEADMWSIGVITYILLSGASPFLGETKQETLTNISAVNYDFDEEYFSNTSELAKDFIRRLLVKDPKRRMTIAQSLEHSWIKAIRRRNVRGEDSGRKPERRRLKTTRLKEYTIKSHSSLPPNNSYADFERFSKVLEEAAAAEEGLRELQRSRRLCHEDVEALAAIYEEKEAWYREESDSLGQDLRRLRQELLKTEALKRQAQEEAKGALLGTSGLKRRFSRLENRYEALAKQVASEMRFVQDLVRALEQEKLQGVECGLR

What is called IC50 is the concentration at which inhibition is half-maximal. For orientation: inhibition means the drop in the measured response relative to a control, in per cent. With `Cn1c(=O)c(Oc2ccc(F)cc2F)cc2cnc(NC3CCN(S(N)(=O)=O)CC3)nc21`, the Activity in assay [1] worked out at 30.5%; in assay [3], 0%. The IC50 in the assay with HEK293 was over 30 µM. For the same compound, the inhibition in [2] worked out at 30%; in assay [4] it was 4%; in assay [5] it was 5%; in assay [6] it was 0%; in assay [7] it was 16%.
Take `Cn1c(=O)c(Oc2ccc(F)cc2F)cc2cnc(NC3CCN(S(C)(=O)=O)CC3)nc21`: the inhibition in [8] came to 0%; in assay [9], 2%; in assay [10], 4%; in [11] it was 62%; in assay [12], 5%; in assay [13], 5%. Moreover, the inhibition was 4% in assay [14]; 8% in [15]; 93% in assay [16]; 0% in assay [17]; 10% in [18]; 8% in [19]. Besides, the inhibition in assay [20] stood at 0%; in [21] it was 1%. For the same compound, the results for the Activity in assay [1] and in [3] were 77.2% and 2.72%, respectively. The same compound registered an IC50 in the assay with HEK293 of over 30 µM.
